From patent US9670204B2, “Compounds and pharmaceutical compositions thereof for the treatment of inflammatory disorders” (Galapagos NV, priority 2013, dated 2017)

molecular target: hENPP2 (UniProtKB/SwissProt Q13822) (Homo sapiens (Human), UniProt Q13822); experiment: hENPP2 biochemical assay, LPC as substrate; details: LPC (palmitoyl 16:0) as substrate
Description: The principle of the assay consists in quantifying the released choline with an enzymatic method using choline oxidase and peroxidase. Choline oxydation by choline oxydase releases betaine and peroxide. The latter is quantified in presence of HRP that converts the peroxide detection agent TOOS and 4-aminoantipyrine into quinoneimine dye. The appearance of quinoneimine dye is measured spectrophotometrically at 555 nm and is proportional to the amount of choline released by ENPP2. Inhibition of ENPP2 will result in a decrease of the signal.
Compound IC50 values are determined in a hENPP2 (UniProtKB/SwissProt Sequence ref Q13822) biochemical assay using LPC as substrate.
The enzyme is diluted in 50 mM Tris-HCl pH 8.5, 500 mM NaCl, 5 mM KCl, 10 mM CaCl2, 0.1% fatty acid free BSA in a total volume of 10 μL. the reaction is started by the addition of 10 μL of 150 μM LPC (palmitoyl 16:0) diluted in the same buffer as described above and the mixture is incubated at 37° C. for 30 min. The reaction is terminated and choline quantified by the addition of a 25 μL of a mixture containing 0.6 U/mL of choline oxidase, 0.6 U/mL of peroxydase, 1.8 mM TOOS, 1.2 mM amino-antipyrine, 20 mM EGTA (stop-developer solution) diluted in the buffer described above. […] is read on the Envision after an incubation of 30 min at room temperature (Excitation 555 nm, excitation light=70%).

IC50 [nM] | SMILES
100 to 500 | CCc1nc2ccc(N3CCN(CC(=O)N4CC(CO)C4)CC3)cn2c1N(C)c1nc(-c2ccc(F)cc2)cs1 [Compound 34, 2-(4-(2-ethyl-3-((4-(4-fluorophenyl)thiazol-2-yl)(methyl)amino)imidazo[1,2-a]pyridin-6-yl)piperazin-1-yl)-1-(3-(hydroxymethyl)azetidin-1-yl)ethanone]
> 1000 | CCc1nc2ccc(C3CCN(C[C@H]4CNC(=O)O4)CC3)cn2c1N(C)c1nc(-c2ccc(F)cc2)cs1 [Compound 196, (R)-5-((4-(2-ethyl-3-((4-(4-fluorophenyl)thiazol-2-yl)(methyl)amino)imidazo[1,2-a]pyridin-6-yl)piperidin-1-yl)methyl)oxazolidin-2-one]
> 1000 | CN(C)C(=O)CN1CCC(c2ccc3nc(CCC(N)=O)c(N(C)c4nc(-c5ccc(F)cc5)cs4)n3c2)CC1 [Compound 176, 3-(6-(1-(2-(dimethylamino)-2-oxoethyl)piperidin-4-yl)-3-((4-(4-fluorophenyl)thiazol-2-yl)(methyl)amino)imidazo[1,2-a]pyridin-2-yl)propanamide]
100 to 500 | CCc1nc2ccc(C3CCN(CC(=O)N4CCC(CO)C4)CC3)cn2c1N(C)c1nc(-c2ccc(F)cc2)cs1 (centres unmarked) [Compound 117, 2-(4-(2-ethyl-3-((4-(4-fluorophenyl)thiazol-2-yl)(methyl)amino)imidazo[1,2-a]pyridin-6-yl)piperidin-1-yl)-1-(3-(hydroxymethyl)pyrrolidin-1-yl)ethanone]
> 1000 | CCc1nc2ccc(C3CCN(S(C)(=O)=O)CC3)cn2c1N(C)c1nc(-c2ccc(OC(F)(F)F)cc2)c(CO)s1 [Compound 148, (2-((2-ethyl-6-(1-(methylsulfonyl)piperidin-4-yl)imidazo [1,2-a]pyridin-3-yl)(methyl)amino)-4-(4-(trifluoromethoxy)phenyl)thiazol-5-yl) methanol]
100 to 500 | CCc1nc2ccc(N3CCN(CC(=O)N4CCOCC4)CC3)cn2c1N(C)c1nc(-c2ccc(F)cc2)cs1 [Compound 32, 2-(4-(2-ethyl-3-((4-(4-fluorophenyl)thiazol-2-yl)(methyl)amino)imidazo[1,2-a]pyridin-6-yl)piperazin-1-yl)-1-morpholinoethanone]
> 1000 | CCc1nc2ccc(C3CCN(S(C)(=O)=O)CC3)cn2c1N(C)c1nc(-c2ccc(OC(F)(F)F)cc2)cs1 [Compound 85, N-(2-ethyl-6-(1-(methylsulfonyl)piperidin-4-yl)imidazo [1,2-a]pyridin-3-yl)-N-methyl-4-(4-(trifluoromethoxy)phenyl)thiazol-2-amine]
100 to 500 | CCc1nc2ccc(N3CC(NCC(=O)N4CC(O)C4)C3)cn2c1N(C)c1nc(-c2ccc(F)cc2)cs1 [Compound 178, 2-(1-(2-ethyl-3-((4-(4-fluorophenyl)thiazol-2-yl)(methyl)amino)imidazo[1,2-a]pyridin-6-yl)azetidin-3-ylamino)-1-(3-hydroxyazetidin-1-yl)ethanone]
0.01 to 100 | CCc1nc2ccc(N3CCN(CC(=O)N4CCCC4)CC3)cn2c1N(C)c1nc(-c2ccc(F)cc2)cs1 [Compound 31, 2-(4-(2-ethyl-3-((4-(4-fluorophenyl)thiazol-2-yl)(methyl)amino)imidazo[1,2-a]pyridin-6-yl)piperazin-1-yl)-1-(pyrrolidin-1-yl)ethanone]
> 1000 | CCc1nc2ccc(N3CCN(C(=O)C4CCN(C(=O)OC(C)(C)C)C4)CC3)cn2c1N(C)c1nc(-c2ccc(F)cc2)cs1 (centres unmarked) [Compound 45, tert-butyl 3-(4-(2-ethyl-3-((4-(4-fluorophenyl)thiazol-2-yl)(methyl)amino)imidazo[1,2-a]pyridin-6-yl)piperazine-1-carbonyl)pyrrolidine-1-carboxylate]
> 1000 | CCc1nc2ccc(C3CCN(C[C@@H]4CNC(=O)O4)CC3)cn2c1N(C)c1nc(-c2ccc(F)cc2)cs1 [Compound 197, (S)-5-((4-(2-ethyl-3-((4-(4-fluorophenyl)thiazol-2-yl)(methyl)amino)imidazo[1,2-a]pyridin-6-yl)piperidin-1-yl)methyl)oxazolidin-2-one]
500 to 1000 | CCc1nc2ccc(C3CCN(S(C)(=O)=O)CC3)cn2c1N(C)c1nc(-c2ccc(C(F)(F)F)cc2)c(CO)s1 [Compound 150, (2-((2-ethyl-6-(1-(methylsulfonyl)piperidin-4-yl)imidazo [1,2-a]pyridin-3-yl)(methyl)amino)-4-(4-(trifluoromethyl)phenyl)thiazol-5-yl) methanol]
100 to 500 | CCc1nc2ccc(C3CCN(CC(=O)N4CCC(O)C4)CC3)cn2c1N(C)c1nc(-c2ccc(F)cc2)cs1 (centres unmarked) [Compound 223, 2-(4-(2-ethyl-3-((4-(4-fluorophenyl)thiazol-2-yl)(methyl)amino)imidazo[1,2-a]pyridin-6-yl)piperidin-1-yl)-1-(3-hydroxypyrrolidin-1-yl)ethanone]
0.01 to 100 | CCc1nc2ccc(N3CCN(CC(=O)NC)CC3)cn2c1N(C)c1nc(-c2ccc(F)cc2C#N)cs1 [Compound 169, 2-(4-(3-((4-(2-cyano-4-fluorophenyl)thiazol-2-yl)(methyl)amino)-2-ethylimidazo[1,2-a]pyridin-6-yl)piperazin-1-yl)-N-methylacetamide]
> 1000 | CCc1nc2ccc(N3CCNCC3)cn2c1N(C)c1nc(-c2ccc(F)cc2C#N)c(C)s1 [Compound 161, 2-(2-((2-ethyl-6-(piperazin-1-yl)imidazo[1,2-a]pyridin-3-yl)(methyl)amino)-5-methylthiazol-4-yl)-5-fluorobenzonitrile]
500 to 1000 | CCc1nc2ccc(C3CCN(CC(=O)N4CCCC4)CC3)cn2c1N(C)c1nc(-c2ccc(F)cc2)c(CO)s1 [Compound 151, 2-(4-(2-ethyl-3-((4-(4-fluorophenyl)-5-(hydroxymethyl)thiazol-2-yl)(methyl)amino)imidazo[1,2-a]pyridin-6-yl)piperidin-1-yl)-1-(pyrrolidin-1-yl)ethanone]
500 to 1000 | CCc1nc2ccc(N3CC(N)C3)cn2c1N(C)c1nc(-c2ccc(F)cc2)cs1 [Compound 177, [6-(3-Amino-azetidin-1-yl)-2-ethyl-imidazo[1,2-a]pyridin-3-yl]-[4-(4-fluoro-phenyl)-thiazol-2-yl]-methyl-amine]
500 to 1000 | CCc1nc2ccc(C3CCN(CC(=O)N4CC(CO)C4)CC3)cn2c1N(C)c1nc(-c2ccc(F)cc2)c(CO)s1 [Compound 152]
> 1000 | CCc1nc2ccc(C3CCN(S(C)(=O)=O)CC3)cn2c1N(C)c1nc(-c2ccc(F)cc2)c(C(=O)OC)s1 [Compound 104, methyl 2-((2-ethyl-6-(1-(methylsulfonyl)piperidin-4-yl)imidazo [1,2-a]pyridin-3-yl)(methyl)amino)-4-(4-fluorophenyl)thiazole-5-carboxylate]
500 to 1000 | CCc1nc2ccc(C3CCN(CC(=O)N(C)CC#N)CC3)cn2c1N(C)c1nc(-c2ccc(F)cc2)cs1 [Compound 121, N-(cyanomethyl)-2-(4-(2-ethyl-3-((4-(4-fluorophenyl)thiazol-2-yl)(methyl)amino)imidazo[1,2-a]pyridin-6-yl)piperidin-1-yl)-N-methylacetamide]
> 1000 | CCc1nc2ccc(N3CCN(C(=O)C4(N)CC4)CC3)cn2c1N(C)c1nc(-c2ccc(F)cc2)cs1 [Compound 202, (1-aminocyclopropyl)(4-(2-ethyl-3-((4-(4-fluorophenyl)thiazol-2-yl)(methyl)amino)imidazo[1,2-a]pyridin-6-yl)piperazin-1-yl)methanone]
> 1000 | CCc1nc2ccc(C3=CCN(S(C)(=O)=O)CC3)cn2c1N(C)c1nc(-c2ccc(C(C)(C)C)cc2)cs1 [Compound 70, 4-(4-tert-butylphenyl)-N-(2-ethyl-6-(1-(methylsulfonyl)-1,2,3,6-tetrahydropyridin-4-yl)imidazo[1,2-a]pyridin-3-yl)-N-methylthiazol-2-amine]
100 to 500 | CCc1nc2ccc(N3CCN(CC(=O)N4CC(F)(F)C4)CC3)cn2c1N(C)c1nc(-c2ccc(F)cc2)cs1 [Compound 29, 1-(3,3-difluoroazetidin-1-yl)-2-(4-(2-ethyl-3-((4-(4-fluorophenyl)thiazol-2-yl)(methyl)amino)-imidazo[1,2-a]pyridin-6-yl)piperazin-1-yl)ethanone]
> 1000 | CCc1nc2ccc(C3=CCN(CC(=O)N(C)C)CC3)cn2c1N(C)c1nc(-c2ccc(F)cc2)ns1 [Compound 190, 2-(4-(2-ethyl-3-((3-(4-fluorophenyl)-1,2,4-thiadiazol-5-yl)(methyl)amino)imidazo[1,2-a]pyridin-6-yl)-5,6-dihydropyridin-1(2H)-yl)-N,N-dimethylacetamide]
0.01 to 100 | CCc1nc2ccc(N3CCN(CC(=O)N4CC(CO)C4)CC3)cn2c1N(C)c1nc(-c2ccc(F)cc2)c(C#N)s1 [Compound 139, 2-((2-ethyl-6-(4-(2-(3-(hydroxymethyl)azetidin-1-yl)-2-oxoethyl)piperazin-1-yl)imidazo[1,2-a]pyridin-3-yl)(methyl)amino)-4-(4-fluorophenyl) thiazole-5-carbonitrile]
> 1000 | CCc1nc2ccc(C3CCN(S(C)(=O)=O)CC3)cn2c1N(C)c1nc(-c2ccc(C(F)(F)F)cc2)cs1 [Compound 84, N-(2-ethyl-6-(1-(methylsulfonyl)piperidin-4-yl)imidazo [1,2-a]pyridin-3-yl)-N-methyl-4-(4-(trifluoromethyl)phenyl) thiazol-2-amine]
